Earlier results on three substances are cited in publication PMC6105163, “Abaloparatide Exerts Bone Anabolic Effects with Less Stimulation of Bone Resorption-Related Factors: A Comparison with Teriparatide” (Calcified Tissue International, 2018).

Ends that are not written are not given here.

The subject of data set [1] is bone mass. The note with it: cited from earlier work; for effect of continuous infusion: in vivo; for bone mass, intermittent administration: ref [2], [3]. The text has this:
Parathyroid hormone (PTH) and PTH-related protein (PTHrP) have a common G protein-coupled receptor, PTH1R, which plays a pivotal role in bone turnover and calcium homeostasis.

Data set [2] has as its system cAMP and PKC. The note with it: ref [24]; cited from earlier work. The text has this:
(§1) There is another possibility that the two peptides could show the different activity on protein kinase C (PKC). PKC is the downstream signal of PTH1R and is involved in the stimulation of bone resorption-related factors and bone catabolism. In fact, ostabolin, an amidated form of human PTH(1–31), differs from PTH(1–34) in PKC activation.

Data set [3] relates to bone turnover. The note with it: preclinical study, ref [25], cited from earlier work.
Text: as §1

For PTH: Parathyroid hormone, in data set [1], the “effect of continuous infusion” value was “caused bone loss and hypercalcemia”; the “bone mass, intermittent administration” value was “increased bone mass”.

As to PTHrP: PTH-related protein, in data set [1], the “effect of continuous infusion” value is “caused bone loss and hypercalcemia”; the “bone mass, intermittent administration” value is given as “increased bone mass”.

On to “ostabolin: an amidated form of human PTH(1–31) (SVSEIQLMHNLGKHLNSMERVEWLRKKLQDV-NH2; UniProt P01270 32-62, looked up, fragment)”, for which the “cAMP accumulation and PKC activation” value in data set [2] was “cAMP accumulation without activating PKC”. Further, in data set [3] (vs PTH(1–34)), the bone resorption result was “less effect on bone resorption than PTH(1–34)”. Besides, in data set [3], the bone formation entry is given as “stimulated bone formation similar to PTH(1–34)”.
